Earlier results as cited in patent publication US6140347A, “Azetidine, pyrrolidine and piperidine derivatives as 5-HT receptor agonists” (Merck Sharp & Dohme Ltd., priority 1996, dated 2000).

Legend:
[1] = therapeutic doses
[2] = test system: human 5-HT1Dα and 5-HT1Dβ receptor subtypes; settings: cf. WO-A-91/17174, Table 1

- discrimination between the human 5-HT1Dα and 5-HT1Dβ receptor subtypes (in words) [2]: barely discriminates
SMILES: CNS(=O)(=O)Cc1ccc2[nH]cc(CCN(C)C)c2c1 [sumatriptan]
- adverse cardiovascular events in humans (in words) [1]: certain adverse cardiovascular events
